Results reported in US20250268260A1, “PESTICIDAL COMPOSITIONS INCLUDING AN ISOXAZOLINE COMPOUND” (SYNGENTA CROP PROTECTION AG, priority 2022, published 2025).

What was measured:
Type in all cases: in vivo
Spodoptera littoralis = assay: Foliar spray on soybean plants, Spodoptera littoralis larvae mortality (Example 1); conditions: isocycloseram 0.4 ppm (0.2 g AI/ha), Bt1 45 ppm (22.5 g AI/ha), alone or combined, second instar larvae; for % mortality (3DAA) Observed Results: 3 days after application; for % mortality (5DAA) Observed Results: 5 days after application
Procedure: The products VIRANTRA SC400 and COSTAR WG 18 are diluted with the addition of water to obtain the concentrations of active ingredients gathered in Table 1 and Table 2, and were applied on soybean plants (planted in pots; ˜8 plants per pot, 5 pots per treatment), in using a turn table application machine (500 l/ha). After drying 10 soybean plants were cut and placed in a petri dish (diameter: 14.5 cm) containing 3 wet filter papers (4 ml water); 3 replicates per concentration were done. Plants were infested with 10 Spodoptera littoralis larvae (second instar of larvae) and petri dish was covered with a round cotton tissue and closed with a plastic lid. Three and five days after application mortality was assessed.

Diabrotica balteata = assay: Corn seed treatment, Diabrotica balteata larvae mortality and plant damage (Example 2); conditions: 6 days after infestation, alone or combined
Procedure: The products FS400 and NOVODOR 3% FC were diluted with the addition of water to have the dose of active ingredient for 30 seeds plus an overage of 10%. These extra 10% were needed to compensate for losses of active ingredient during the seed treatment process. 30 seeds of corn were placed in a spheric glass beaker, and the application solution was added. The beaker was swung to mix the seeds with the solution. After drying, four seeds were sown per pot. 5 replicates per treatment were prepared. 14 days after sowing the pots were infested with 5 second instar larvae of Diabrotica balteata. 6 days after infestation (6DAI) the mortality of larvae and the damage on the plants was assessed.

Agriotes lineatus = assay: Barley seed treatment, wireworm (Agriotes lineatus) corrected mortality and plant height (Example 3); conditions: for Plant height in cm / % Increase plant height in comparison to infested control (6DAI) observed: 6DAI; for Plant height in cm: barley, infested control 9.3, not infested control 14.9; for % Corrected mortality (20 DAI) observed: 20 days after infestation, barley seed treatment
Procedure: The products FS400 and NOVODOR 3% FC were diluted with the addition of water to have the dose of active ingredient for 30 seeds plusan overage of 10%. These extra 10% were needed to compensate for losses of active ingredient during the seed treatment process. 30 seeds of barley were placed in a spheric glass beaker, and the application solution was added. The beaker was swung to mix the seeds with the solution. After drying two seeds were sown per pot. 10 replicates per treatment were prepared. 5 days after sowing the pots were infested with 10 wireworms (Agriotes lineatus, approx. 20 mm length). 20 days after infestation (20DAI), the corrected mortality of the wireworms was assessed based on the control treatment. 6 days after infestation (6DAI) the plant height was measured.

[1] = isocycloseram 0.01 mg/seed (3 g/100 kg seeds), Bt2 0.03 mg/seed (10 g/100 kg seeds)
[2] = isocycloseram 0.03 mg/seed (10 g/100 kg seeds), Bt2 0.1 mg/seed (30 g/100 kg seeds)
[3] = isocycloseram 0.25 μg/seed (6 g/100 kg seed), alone or + Bt2 5 μg/seed
[4] = isocycloseram 1.25 μg/seed (24 g/100 kg seed), alone or + Bt2 5 μg/seed
[5] = Bt2 alone 5 μg/seed (120 g/100 kg seed)

| Compound | % mortality (3DAA) Observed Results (Spodoptera littoralis) | % mortality (5DAA) Observed Results (Spodoptera littoralis) | % Mortality (6DAI) observed (Diabrotica balteata; [1]) | % Plant damage reduction (6DAI) observed (Diabrotica balteata; [1]) | % Mortality (6DAI) observed (Diabrotica balteata; [2]) | % Plant damage reduction (6DAI) observed (Diabrotica balteata; [2]) | Plant height in cm (Agriotes lineatus; [3]) | Plant height in cm (Agriotes lineatus; [4]) | % Increase plant height in comparison to infested control (6DAI) observed (Agriotes lineatus; [3]) | % Increase plant height in comparison to infested control (6DAI) observed (Agriotes lineatus; [4]) | % Corrected mortality (20 DAI) observed (Agriotes lineatus; isocycloseram 0.25 μg/seed (6 g/100 kg seed), alone or + Bt2 5 μg/seed (120 g/100 kg seed)) | % Corrected mortality (20 DAI) observed (Agriotes lineatus; isocycloseram 1.25 μg/seed (24 g/100 kg seed), alone or + Bt2 5 μg/seed (120 g/100 kg seed)) | % Increase plant height in comparison to infested control (6DAI) observed (Agriotes lineatus; [5]) | Plant height in cm (Agriotes lineatus; [5]) | % Corrected mortality (20 DAI) observed (Agriotes lineatus; [5]) |
| --- | --- | --- | --- | --- | --- | --- | --- | --- | --- | --- | --- | --- | --- | --- | --- |
| CCN1OCC(NC(=O)c2ccc(C3=NOC(c4cc(Cl)c(F)c(Cl)c4)(C(F)(F)F)C3)cc2C)C1=O (stereo not drawn) [isocycloseram] | 0% | 7% | 33% | 33% | 58% | 50% | 10.2 cm | 10.6 cm | 10% | 14% | 17% | 25% |  |  |  |
| Bacillus thuringiensis var. kurstaki strain SA-12 [Bt1] | 20% | 30% |  |  |  |  |  |  |  |  |  |  |  |  |  |
| Bacillus thuringiensis var. tenebrionis strain NB-176 [Bt2] |  |  | 0% | −6% | 0% | 11% |  |  |  |  |  |  | 0% | 9 cm | 0% |
